Source: patent US20260083704A1, “LXR MODULATORS WITH BICYCLIC CORE MOIETY FOR TREATING DYSLIPIDEMIAS” (OrsoBio, Inc., priority 2022, published 2026)

How the values were obtained:
[1] = molecular target: T1, LXRβ (Homo sapiens, UniProt P55055); assay: LXR Gal4 reporter transient transfection assay (mammalian two-hybrid, HEK293), LXRβ; type: cell-based; conditions: ligand-binding domain (LBD) of LXRβ, HEK293; read-out: LBD-M2H Gal4β
T1 construct: LXRβ (amino acids 156-461); expressed in transfected cells; host or cells: HEK293
T1 sequence (P55055 156-460): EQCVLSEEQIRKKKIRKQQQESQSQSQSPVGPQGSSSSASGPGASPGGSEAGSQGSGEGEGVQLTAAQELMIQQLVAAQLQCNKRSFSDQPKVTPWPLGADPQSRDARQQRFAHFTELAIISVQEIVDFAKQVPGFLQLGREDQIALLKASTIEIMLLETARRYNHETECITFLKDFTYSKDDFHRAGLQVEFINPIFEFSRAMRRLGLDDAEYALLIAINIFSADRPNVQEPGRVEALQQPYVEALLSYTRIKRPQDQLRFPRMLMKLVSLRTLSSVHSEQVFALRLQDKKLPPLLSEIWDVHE
Protocol: LXRα and LXRβ activity status was determined via detection of interaction with coactivator and corepressor proteins in mammalian two-hybrid experiments (M2H). For this, via transient transfection the full length (FL) proteins of LXRα (amino acids 1-447; NP005684; SEQ ID NO:1) or LXRβ-(amino acids 1-461; NP009052; SEQ ID NO:2) or the ligand-binding domains (LBD) of LXRα (amino acids 155-447 SEQ ID NO:3) or LXRβ (amino acids 156-461; SEQ ID NO:4) were expressed from pCMV-AD (Stratagene) as fusions to the transcriptional activation domain of NFkB. As cofactors, domains of either the steroid receptor coactivator 1 (SRC1; amino acids 552-887; SEQ ID NO:5) or of the corepressor NCoR (amino acids 1906-2312; NP006302; SEQ ID NO:6) were expressed as fusions to the DNA binding domain of the yeast transcription factor GAL4 (from pCMV-BD; Stratagene). Interaction was monitored via activation of a coexpressed Firefly Luciferase Reporter gene under control of a promoter containing repetitive GAL4 response elements (vector pFRLuc; Stratagene). Transfection efficiency was controlled via cotransfection of constitutively active pRL-CMV Renilla reniformis luciferase reporter (Promega). HEK293 cells were grown in minimum essential medium (MEM) with 2 mM L-glutamine and Earle's balanced salt solution supplemented with 8.3% fetal bovine serum, 0.1 mM non-essential amino acids, 1 mM sodium pyruvate, at 37° C. in 5% CO2. 3.5×10^4 cells/well were plated in 96-well cell culture plates in growth medium supplemented with 8.3% fetal bovine serum for 16-20 h to ˜90% confluency. For transfection, medium was taken off and LXR and cofactor expressing plasmids as well as the reporter plasmids are added in 30 μL OPTIMEM/well including polyethylene-imine (PEI) as vehicle. Typical amounts of plasmids transfected/well: pCMV-AD-LXR (5 ng), pCMV-BD-cofactor (5 ng), pFR-Luc (100 ng), pRL-CMV (0.5 ng). Compound stocks were prepared in DMSO, prediluted in MEM to a total volume of 120 μL, and added 4 h after addition of the transfection mixture (final vehicle concentration not exceeding 0.2%). Cells were incubated for additional 16 h, lysed for 10 min in 1×Passive Lysis Buffer (Promega) and Firefly and Renilla luciferase activities were measured sequentially in the same cell extract using buffers containing D-luciferine and coelenterazine, respectively. Measurements of luminescence were done in a BMG-luminometer.
The potencies of Compound 21/3 and its analog, Compound pre-6/3, against LXRα and LXRβ were evaluated in biochemical binding assays, cellular mammalian two-hybrid (M2H) interaction assays evaluating nuclear receptor co-repressor (NCOR) recruitment, and cellular reporter assays evaluating transcriptional activity (Table 5).

[2] = molecular target: T2, GST-LXRβ ligand-binding domain (Homo sapiens, UniProt P55055); assay: TR-FRETβ activity assay (NCoA3 coactivator peptide recruitment); type: biochemical; conditions: 1 μM 24(S)-25-epoxycholesterol prestimulation
T2 construct: amino acids 156-461; NP009052; made in house; host or cells: E. coli
T2 sequence (P55055 156-460 limits assumed): T1 sequence (P55055 156-460)
In short: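 E. coli-expressed GST-LXRβ LBD (aa 156-461, 76 nM) with biotinylated NCoA3 peptide (400 nM) in Tris/HCl pH 6.8 containing 1 μM 24(S)-25-epoxycholesterol agonist. Compounds tested at 50 μM down to 0.002 μM in triplicate. TR-FRET (Tb cryptate/XL665, ex 340, em 615/665 nm) read after 1 h at 4° C.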

Structure (SMILES)	EC50 [1]	EC50 [2]
Cc1ccc(S(=O)(=O)n2c(-c3ccsc3)c(-c3ccsc3C#N)c3ccccc32)cc1 [1/23]	< 100 nM	100 to 1000 nM
Cc1cc(C)c(S(=O)(=O)n2c(-c3cccs3)c(-c3ccsc3C#N)c3ccccc32)c(C)c1 [1/26]	< 100 nM	1000 to 10000 nM
N#Cc1sccc1-c1c(-c2cccs2)n(S(=O)(=O)c2cccc3ccccc23)c2ccccc12 [1/27]	< 100 nM	1000 to 10000 nM
Cn1cnc(S(=O)(=O)n2c(-c3cccs3)c(-c3ccsc3C#N)c3ccccc32)c1 [1/28]	< 100 nM	1000 to 10000 nM
COc1ccc2c(-c3ccsc3C#N)c(-c3cccs3)n(S(=O)(=O)c3ccc(Cl)cc3)c2c1 [1/40]	< 100 nM	1000 to 10000 nM
N#Cc1sccc1-c1c(-c2ccccc2)n(S(=O)(=O)c2cccnc2)c2ccccc12 [1/41]	< 100 nM	1000 to 10000 nM
Cc1ncc(S(=O)(=O)n2c(-c3ccccc3)c(-c3ccsc3C#N)c3ccccc32)s1 [1/42]	< 100 nM	1000 to 10000 nM
N#Cc1sccc1-c1c(-c2cccc(N3CC(C(=O)O)C3)c2)n(S(=O)(=O)c2ccccc2)c2ccc(F)cc12 [3/9]	< 100 nM	1000 to 10000 nM
Cc1ccc(S(=O)(=O)n2c(-c3ccc(CC(C)(C)C(=O)O)s3)c(-c3ccsc3C#N)c3ccccc32)cc1 [3/16]	100 to 1000 nM	1000 to 10000 nM
Cc1ccc(S(=O)(=O)n2c(-c3cc(C4CC4C(=O)O)cs3)c(-c3ccsc3C#N)c3ccccc32)cc1 (stereo not shown) [3/17]	< 100 nM	1000 to 10000 nM
Cc1ccc(S(=O)(=O)n2c(-c3cccc(/C=C/C(=O)O)c3)c(-c3ccsc3C#N)c3ccccc32)cc1 [3/18]	< 100 nM	1000 to 10000 nM
Cc1ccc(S(=O)(=O)n2c(-c3ccc(/C=C/C(=O)O)s3)c(-c3ccsc3C#N)c3ccccc32)cc1 [3/19]	100 to 1000 nM	1000 to 10000 nM
Cc1ccc(S(=O)(=O)n2c(-c3cccc(C(C)(C)C(=O)O)c3)c(-c3ccsc3C#N)c3ccccc32)cc1 [3/20]	< 100 nM	1000 to 10000 nM
N#Cc1sccc1-c1c(-c2cccc(OCC(=O)O)c2)n(S(=O)(=O)c2ccc(Cl)cc2)c2ccccc12 [3/51]	100 to 1000 nM	1000 to 10000 nM
N#Cc1sccc1-c1c(-c2cccs2)n(S(=O)(=O)c2ccc(Cl)cc2)c2cc(O)ccc12 [13/1]	< 100 nM	1000 to 10000 nM
N#Cc1sccc1-c1c(-c2cccs2)n(S(=O)(=O)c2ccc(Cl)cc2)c2ccc(OCCCC(=O)O)cc12 [15/1]	100 to 1000 nM	1000 to 10000 nM
N#Cc1sccc1-c1c(-c2cccs2)n(S(=O)(=O)c2ccc(Cl)cc2)c2ccc(OCCCCC(=O)O)cc12 [15/2]	100 to 1000 nM	> 10000 nM
N#Cc1sccc1-c1c(-c2cccs2)n(S(=O)(=O)c2ccc(Cl)cc2)c2cc(OCCCC(=O)O)ccc12 [15/4]	< 100 nM	1000 to 10000 nM
N#Cc1sccc1-c1c(-c2cccs2)n(S(=O)(=O)c2ccc(Cl)cc2)c2cc(OCCCCC(=O)O)ccc12 [15/5]	< 100 nM	1000 to 10000 nM
COc1ccc(S(=O)(=O)n2c(-c3ccc(CCC(=O)O)cc3)c(-c3ccsc3C#N)c3ccccc32)cc1 [15/6]	100 to 1000 nM	1000 to 10000 nM
N#Cc1ccncc1-c1c(-c2cccs2)n(S(=O)(=O)c2ccc(Cl)cc2)c2ccccc12 [20/2]	< 100 nM	1000 to 10000 nM
O=S(=O)(c1ccc(Cl)cc1)n1c(-c2cccs2)c(-c2ccsc2C(F)F)c2ccccc21 [20/3]	< 100 nM	100 to 1000 nM
N#Cc1cscc1-c1c(-c2cccs2)n(S(=O)(=O)c2ccc(Cl)cc2)c2ccccc12 [20/4]	< 100 nM	1000 to 10000 nM
